Source: US9561231B2 (AbbVie Inc., priority 2012, dated 2017)

Legend:
Raji = assay: Proliferation panel assay: Raji; format: cell-based; conditions: Homo sapiens, 120 h; Raji (Burkitt lymphoma); 5 days, Cell Titer Glo; read-out: Cellular Proliferation EC50
MDAMB231 = assay: Proliferation panel assay: MDAMB231; format: cell-based; conditions: Homo sapiens, MDA-MB-231, 120 h; MDAMB231 (Breast); 5 days, Cell Titer Glo; read-out: Cellular Proliferation EC50
HepG2 = assay: Proliferation panel assay: HepG2; format: cell-based; conditions: Homo sapiens, 120 h; HepG2 (Hepatocellular); 5 days, Cell Titer Glo; read-out: Cellular Proliferation EC50
OPM2 = assay: Proliferation panel assay: OPM2; format: cell-based; conditions: Homo sapiens, OPM-2, 120 h; OPM2 (Multiple Myeloma); 5 days, Cell Titer Glo; read-out: Cellular Proliferation EC50
RPMI-8226 = assay: Proliferation panel assay: RPMI-8226; format: cell-based; conditions: Homo sapiens, 120 h; RPMI-8226 (Multiple Myeloma); 5 days, Cell Titer Glo; read-out: Cellular Proliferation EC50
Ramos = assay: Proliferation panel assay: Ramos; format: cell-based; conditions: Homo sapiens, 120 h; Ramos (NHL); 5 days, Cell Titer Glo; read-out: Cellular Proliferation EC50
HPAC = assay: Proliferation panel assay: HPAC; format: cell-based; conditions: Homo sapiens, 120 h; HPAC (Pancreas); 5 days, Cell Titer Glo; read-out: Cellular Proliferation EC50
PC3M = assay: Proliferation panel assay: PC3M; format: cell-based; conditions: Homo sapiens, PC-3M, 120 h; PC3M (Prostate); 5 days, Cell Titer Glo; read-out: Cellular Proliferation EC50
786-0 = assay: Proliferation panel assay: 786-0; format: cell-based; conditions: Homo sapiens, 120 h; 786-0 (RCC); 5 days, Cell Titer Glo; read-out: Cellular Proliferation EC50
[1] = system: LPS induced IL-6 production; assay: LPS (lipopolysaccharide) induced IL-6 production mouse assay; conditions: 30 mg/kg oral, 1 h before LPS 2.5 mg/kg i.p.; serum IL-6 2 h after LPS; p<0.05

Row | EC50 (Raji) | EC50 (MDAMB231) | EC50 (HepG2) | EC50 (RPMI-8226) | EC50 (Ramos) | EC50 (PC3M) | EC50 (786-0) | SMILES | EC50 (OPM2) | EC50 (HPAC) | Inhibition of LPS induced IL-6 production, % inhibition [1]
1 | 129 nM | 720 nM | 486 nM | 279 nM | 370 nM | 1450 nM | 273 nM | Cn1cc(-c2cc(NS(C)(=O)=O)ccc2Oc2ccccc2)ccc1=O [Example 224, N-[3-(1-methyl-6-oxo-1,6-dihydropyridin-3-yl)-4-phenoxyphenyl]methanesulfonamide] | 50 nM | 380 nM | 
2 | 134 nM | 460 nM | 510 nM | 305 nM | 390 nM | 1400 nM | 250 nM | Cc1cc(-c2cc(NS(C)(=O)=O)ccc2Oc2ccccc2)c[nH]c1=O [Example 261, N-[3-(5-methyl-6-oxo-1,6-dihydropyridin-3-yl)-4-phenoxyphenyl]methanesulfonamide] | 55 nM | 500 nM | 42.2 @ 30 mg/kg %
